Laboratory results published in PMC4579271, “Inflammatory Signaling by NOD-RIPK2 Is Inhibited by Clinically Relevant Type II Kinase Inhibitors” (Chemistry & Biology, 2015).

Legend:
[1] = tested on: NF-κB activation in HEKBlue cells expressing NOD2; test: HEKBlue NF-κB-SEAP reporter activation assay, L18-MDP stimulation; details: Homo sapiens, HEK-Blue, 8 h, read-out: NFκB activity EC50
[2] = tested on: IκBα degradation in THP-1 cells; test: Immunoblot of IκBα in L18-MDP-stimulated THP-1 cells; type: cell-based, human; details: 100 nM pre-treatment, 200 ng/ml L18-MDP
Procedure: Figure 5 Inhibition of NOD2-Dependent Ubiquitination and Signaling (A–C) THP-1 cells were pre-treated with kinase inhibitors or DMSO for 30 min and stimulated with 200 ng/ml L18-MDP (A, B) or TNF (C) as indicated. At the indicated time points, cells were lysed and ubiquitinated proteins were isolated using TUBE reagent. The isolated ubiquitinated proteins and input material were analyzed by immunoblotting. See also Figure S6.
The ubiquitin conjugates were purified using GST-Tandem Ubiquitin Binding Entities (TUBE; [Fiil et al., 2013]). In brief, treated THP-1 cells (6–10 × 10^6) were washed with PBS and lysed in 400 μl of ice-cold lysis buffer containing TUBE on ice for 30 min. Cleared lysates were incubated with Glutathione Sepharose 4B resin (Amersham) with agitation at 4°C overnight. The beads were washed four times with PBS-Tween (0.1%) and the bound proteins were released by heating the beads in reducing SDS sample buffer. The samples were resolved on pre-cast gradient gels (NuPage; Life Technologies) in MOPS running buffer and subjected to immunoblotting.

[3] = tested on: LPS and Pam3CSK4 responses in RAW264.7 cells; test: qRT-PCR of Toll-like receptor-dependent inflammatory gene expression in RAW264.7 cells (LPS, Pam3CSK4); type: cell-based, mouse; details: 100 nM
Procedure: Figure 6 Inhibition of NOD-Dependent Inflammatory Gene Expression in RAW264.7 Cells (A and B) Cells were pre-treated with 1, 10, or 100 nM inhibitors for 30 min and stimulated with 10 μg/ml MDP (A) or Tri-DAP (B) for 18–24 hr in triplicate. RNA samples were isolated and changes in gene expression were analyzed using gene-specific primers using SYBR qRT-PCR. All values were normalized to the levels of GAPDH. (C and D) Lack of inhibition of Toll-like receptor-dependent inflammatory gene expression in RAW264.7 cells. Experiments were performed as described above, except cells were stimulated with 10 ng/ml E. coli LPS (C) or 500 ng/ml Pam3CSK4 (D). All experiments were performed in triplicate; error bars indicate SD values.
40C centrifuge at 14,000 rpm for 15 min to collect lysates. Protein concentrations were measured using […] protein assay reagent (Pierce). […]
For ADPGlo (Promega) assays, 1 ng Abl or 10 ng of RIPK2 was diluted in reaction buff er (40 mM Tris-HCl pH 7.5, 20 mM MgCl2, 0.5 m M DTT, 0.01% BSA) supplemented with 50 µM ATP and 10-point dose range of inhibitors. […] Luminescent signal was generated by addition of 10 µL of kinase detection reagent for 30 minutes at room temperature and determined using Victor3V platereader (Perkin Elmer). Specific signal was calculated by subtracting values in the wells without protein and inhibitor from the values in the test wells. […]

NOD2-RIPK2 interaction = NOD2-RIPK2 interaction (Homo sapiens, UniProt O43353); test: HA-immunoprecipitation of RIPK2 with inducible HA-NOD2 in U2OS cells; details: 100 nM, 24 hr
RIPK3 = RIPK3 (Homo sapiens, UniProt Q9Y572); design: method as in Najjar et al., 2015; details: ref Najjar et al., 2015; cited from earlier work
Sequence of RIPK3 (Q9Y572 whole entry, species assumed): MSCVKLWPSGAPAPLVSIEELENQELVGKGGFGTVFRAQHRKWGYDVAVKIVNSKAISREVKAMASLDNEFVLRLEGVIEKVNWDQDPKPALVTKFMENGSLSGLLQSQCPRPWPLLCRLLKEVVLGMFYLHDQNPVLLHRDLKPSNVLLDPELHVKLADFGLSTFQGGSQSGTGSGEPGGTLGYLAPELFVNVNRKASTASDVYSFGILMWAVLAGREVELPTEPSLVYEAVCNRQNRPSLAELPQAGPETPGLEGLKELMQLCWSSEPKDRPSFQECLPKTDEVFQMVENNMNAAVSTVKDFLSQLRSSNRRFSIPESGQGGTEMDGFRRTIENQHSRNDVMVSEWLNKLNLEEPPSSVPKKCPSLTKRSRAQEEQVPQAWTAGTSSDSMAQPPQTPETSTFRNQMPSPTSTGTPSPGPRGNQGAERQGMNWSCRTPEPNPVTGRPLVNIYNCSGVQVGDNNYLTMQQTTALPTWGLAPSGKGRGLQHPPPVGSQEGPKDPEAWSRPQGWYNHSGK

Sequence of NOD2-RIPK2 interaction (O43353 whole entry): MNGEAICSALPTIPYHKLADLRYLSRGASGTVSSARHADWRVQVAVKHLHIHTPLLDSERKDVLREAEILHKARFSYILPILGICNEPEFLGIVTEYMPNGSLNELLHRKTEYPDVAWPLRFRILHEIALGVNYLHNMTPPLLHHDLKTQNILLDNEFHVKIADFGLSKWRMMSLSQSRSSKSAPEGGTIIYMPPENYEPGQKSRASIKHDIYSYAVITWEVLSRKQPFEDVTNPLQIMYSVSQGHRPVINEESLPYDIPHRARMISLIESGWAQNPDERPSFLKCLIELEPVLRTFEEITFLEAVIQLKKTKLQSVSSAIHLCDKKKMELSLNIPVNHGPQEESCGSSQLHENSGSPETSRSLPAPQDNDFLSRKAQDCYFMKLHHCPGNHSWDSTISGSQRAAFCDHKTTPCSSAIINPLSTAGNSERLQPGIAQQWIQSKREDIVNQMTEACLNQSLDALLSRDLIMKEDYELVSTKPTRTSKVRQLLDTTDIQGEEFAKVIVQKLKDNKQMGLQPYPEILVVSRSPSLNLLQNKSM
Sequence of NOD2-RIPK2 interaction (Q9HC29 whole entry partner): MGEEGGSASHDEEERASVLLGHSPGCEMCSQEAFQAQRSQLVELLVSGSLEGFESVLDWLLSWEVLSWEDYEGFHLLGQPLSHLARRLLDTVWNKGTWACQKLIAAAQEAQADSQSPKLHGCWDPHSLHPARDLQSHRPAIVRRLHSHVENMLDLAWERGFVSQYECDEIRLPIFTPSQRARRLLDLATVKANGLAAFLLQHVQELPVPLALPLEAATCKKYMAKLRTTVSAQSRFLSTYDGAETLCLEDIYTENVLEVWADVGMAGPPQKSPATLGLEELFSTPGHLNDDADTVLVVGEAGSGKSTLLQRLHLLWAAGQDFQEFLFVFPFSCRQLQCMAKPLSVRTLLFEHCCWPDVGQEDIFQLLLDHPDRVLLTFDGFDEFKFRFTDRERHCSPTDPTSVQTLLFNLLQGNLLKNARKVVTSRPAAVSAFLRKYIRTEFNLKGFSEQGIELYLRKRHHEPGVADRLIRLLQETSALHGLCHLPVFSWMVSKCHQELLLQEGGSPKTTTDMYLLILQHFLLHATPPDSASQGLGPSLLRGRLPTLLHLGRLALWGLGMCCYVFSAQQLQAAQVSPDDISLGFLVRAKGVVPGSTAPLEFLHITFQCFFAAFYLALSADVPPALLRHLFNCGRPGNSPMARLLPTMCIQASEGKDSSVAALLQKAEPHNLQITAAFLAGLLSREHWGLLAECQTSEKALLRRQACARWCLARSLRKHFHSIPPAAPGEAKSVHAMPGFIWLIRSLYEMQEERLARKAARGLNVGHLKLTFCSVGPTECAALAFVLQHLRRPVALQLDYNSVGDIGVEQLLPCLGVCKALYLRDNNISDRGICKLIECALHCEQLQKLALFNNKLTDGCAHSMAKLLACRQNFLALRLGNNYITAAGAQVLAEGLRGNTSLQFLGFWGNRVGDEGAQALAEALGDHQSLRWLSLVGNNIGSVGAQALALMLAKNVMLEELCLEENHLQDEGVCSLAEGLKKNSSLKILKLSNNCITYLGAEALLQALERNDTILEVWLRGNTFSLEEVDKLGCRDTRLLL

Cc1ccc(C(=O)Nc2ccc(CN3CCN(C)CC3)c(C(F)(F)F)c2)cc1C#Cc1cnc2cccnn12 [ponatinib, 3-[2-(imidazo[1,2-b]pyridazin-3-yl)ethynyl]-4-methyl-N-{4-[(4-methylpiperazin-1-yl)methyl]-3-(trifluoromethyl)phenyl}benzamide]
EC50 [1]: 800 pM
downstream degradation of IκBα [2]: blocked
LPS and Pam3CSK4 responses [3]: partially attenuated
NOD2-RIPK2 interaction (NOD2-RIPK2 interaction): stably maintained
inhibition of RIPK3 kinase activity in necroptosis (RIPK3): efficient inhibitor
